Test results: paper PMC12514971 (Protein science : a publication of the Protein Society, 2025)

Target: T1, ADAR1p150 (Zα domain) (Homo sapiens, UniProt P55265)
T1 sequence (P55265 133-199 limits assumed): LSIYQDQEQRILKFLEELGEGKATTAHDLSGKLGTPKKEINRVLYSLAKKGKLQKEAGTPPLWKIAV
Test: MST titration
Format: binding

`O=C(O)c1cc(=O)c2c(OCC(O)COc3cccc4oc(C(=O)O)cc(=O)c34)cccc2o1` [cromolyn] was tested, and the Kd was > 774 µM.
